# Assay results from publication PMC6050537, “Inhibition of low-density lipoprotein receptor degradation with a cyclic peptide that disrupts the homodimerization of IDOL E3 ubiquitin ligase” (Chemical Science, 2018).
# Residues, ends and D or L forms follow the SMILES beside them.
# Experiments:
# RING domain of IDOL = tested on: T1, RING domain of IDOL; assay: 1H 15N HSQC NMR binding to RING domain
# T1 construct: IDOL RING domain (G356-I445) was expressed as TEV cleavable N-terminal HN6-Lysine-Tag; HN6-Lysine-Tag (TEV-cleavable) (N); made in house; host or cells: E. coli (pET vector)
# Excerpt: (§1) The lead candidates, cyclo-CTIFLL and cyclo-CFFLYT, were next analyzed for binding to the RING domain of IDOL by ^1H ^15N HSQC NMR. We also assessed the binding of each peptide to the FERM domain of IDOL as a negative control. […] It should be noted that the 3 residues affected by cyclo-CFFLYT (named RINGPep1) form part of the PPI interface in the crystal structure of the homodimerized RING domains of IDOL (Fig. 1c and ESI Fig. 6 ^†).[15] Furthermore, mutation of V431R coupled with a L433R mutation is known to result in a dimer deficient IDOL.[15]
# (§2) ^15N-labeled RING and FERM domains were prepared for NMR experiments by buffer exchange using Amicon Ultra-4 Centrifugal Filter Units with 3 kDa molecular weight cut-off membranes. Buffer conditions for the NMR studies were 50 mM TRIS-d11 pH 7.5, 200 mM NaCl, 3 mM TCEP, 10% (v/v) D2O for the RING domain and 25 mM TRIS-d11, 25 mM NaPi, pH 7.5, 300 mM NaCl, 3 mM TCEP, 10% (v/v) D2O for the FERM domain. The protein concentrations were 80 μM and 70 μM, for the RING and FERM domain respectively. Two-dimensional NMR SOFAST-HMQC titration experiments were carried out on a Bruker 600 MHz spectrometer equipped with a cryoprobe. […]
# [1] = tested on: IDOL homodimerization (434-IDOL fusion) in IDOL RTHS; assay: IDOL bacterial reverse two-hybrid system (RTHS) drop-spotting; type: cell-based, E. coli; conditions: SICLOPPS-encoded peptide, IPTG 25 μM plus arabinose
# Excerpt: We used a previously reported genetically encoded high-throughput screening platform that combines a bacterial reverse two-hybrid system (RTHS)[21],[23]–[25] with a plasmid-encoded library of 3.2 million cyclic hexapeptides using split intein circular ligation of peptides and proteins (SICLOPPS).[26],[27] We began by constructing a bacterial RTHS for IDOL homodimerization. IDOL is expressed as an N-terminal fusion with the 434 bacteriophage repressor, with the 38 amino acid disordered region of the 434 repressor acting as linker. IDOL homodimerization is expected to bring together two 434 proteins to form a functional repressor that binds to the operator sites engineered onto the E. coli chromosome, and prevent the expression of 3 genes downstream that are required for growth and survival on selective media (Fig. 1a). We verified the formation of a functional repressor and suppression of growth on selective media upon IDOL homodimerization by drop-spotting (Fig. 1b), and by ONPG assay (ESI Fig. 1 ^†) as previously detailed.[21] A SICLOPPS CXXXXX library (where X = any canonical amino acid) was prepared as previously detailed[28] and transformed into the IDOL RTHS prior to plating on selective media. After incubation of the selection plates for 48 h, 480 surviving colonies were picked and individually assessed for arabinose-dependent survival on selective media by drop-spotting. […]
# [2] = target: T2, 6× His-tagged, full-length IDOL (Homo sapiens, UniProt Q8WY64); assay: Surface plasmon resonance (SPR) affinity for IDOL; type: binding; conditions: SPR, immobilized full-length His-IDOL; saturation at highest concentrations not observed; read-out: Kd
# T2 construct: Full length IDOL (1–445) was cloned with a TEV cleavable N-terminal 6xHis tag; made in house; host or cells: Spodoptera frugiperda Sf21 (baculovirus, pFastbac1)
# T2 sequence (Q8WY64 1-445): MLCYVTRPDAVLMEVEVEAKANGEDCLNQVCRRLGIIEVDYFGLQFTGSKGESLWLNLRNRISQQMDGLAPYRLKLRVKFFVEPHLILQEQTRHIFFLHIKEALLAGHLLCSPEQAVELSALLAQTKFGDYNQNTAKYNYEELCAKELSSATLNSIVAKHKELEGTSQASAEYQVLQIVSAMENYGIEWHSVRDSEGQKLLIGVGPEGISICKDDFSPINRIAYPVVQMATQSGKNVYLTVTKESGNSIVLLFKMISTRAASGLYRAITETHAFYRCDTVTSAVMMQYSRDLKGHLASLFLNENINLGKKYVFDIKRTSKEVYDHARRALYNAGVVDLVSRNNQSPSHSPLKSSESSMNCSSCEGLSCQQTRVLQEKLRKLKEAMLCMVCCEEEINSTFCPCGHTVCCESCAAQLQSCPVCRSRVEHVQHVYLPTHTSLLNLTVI
# Excerpt: We initially assessed the affinity of the 6 selected cyclic peptides for IDOL by surface plasmon resonance (SPR). Although saturation at the highest concentrations was not observed, due to hydrophobic effects, Kd values could be determined for five peptides (Table 1). […] The hit rate for our IDOL screen is in line with that for previous SICLOPPS screens.[21],[25] It should be noted that although cyclo-CTIFLL and cyclo-CTLILF contain the same amino acids, changing the order in which these are arranged results in activity loss.
# All measurements were performed on a Biacore S200 (GE healthcare) using running buffer 10 mM HEPES, 300 mM NaCl, 1 mM TCEP, 0.05% Tween 20 and 4% DMSO at pH 8.0. In brief, 6× His-tagged, full-length IDOL was immobilized on a NTA-chip (Xantec), to a final level of ∼6000 RU. The chip was pre-loaded with Ni^2+ to facilitate efficient capture of His-tagged protein onto the chip. The activity of the immobilized protein was confirmed using a reference compound.
# Supplementary Figure 2. […] Saturation of binding was not observed due to the hydrophobic nature of the peptides
# (1 picture or pasted object on this page, not shown here)
# FERM domain of IDOL = tested on: T3, FERM domain of IDOL; assay: 1H 15N HSQC NMR binding to FERM domain (negative control)
# T3 construct: made in house; host or cells: E. coli BL21
# Excerpt: as §1, §2
structure (smiles),measurement,setting,value
"CC(C)C[C@@H]1NC(=O)[C@H](Cc2ccccc2)NC(=O)[C@H](Cc2ccccc2)NC(=O)[C@H](CS)NC(=O)[C@H]([C@@H](C)O)NC(=O)[C@H](Cc2ccc(O)cc2)NC1=O [RINGPep1, cyclo-CFFLYT] (HELM PEPTIDE1{C.F.F.L.Y.T}$PEPTIDE1,PEPTIDE1,1:R1-6:R2$$$V2.0)","chemical shift changes, RING domain of IDOL",RING domain of IDOL,modest chemical shift changes for 3 amino acids
same,growth of IDOL RTHS on selective media,[1],restored
same,Kd,[2],38.5 ± 34.8 µM
same,"chemical shift changes, FERM domain of IDOL",FERM domain of IDOL,No changes
